We go through 2 compounds from patent US20070179060A1, “6-(Poly-substituted aryl)-4-aminopicolinates and their use as herbicides” (priority 2006, published 2007).

Type in all cases: in vivo
The test system of assay [1] is Hordeum vulgare (winter barley). Briefly: Postemergence herbicidal activity of mixtures in cereal crops. The settings on record: after 3 weeks. How it is done:
(§1) Seeds of the desired test plant species were planted and reared as described in “Evaluation of Postemergence Herbicidal Safening in Cereal Crops” (section 37).
(§2) Treatments consisted of compound (as listed in Tables 6 and 7), fluroxypyr methylheptyl ester (MHE), and clopyralid monoethanolamine (MEA) salt alone and in combination. Weighed amounts were placed in 25 mL glass vials and dissolved in a volume of 97:3 v/v acetone/DMSO to obtain 4.5 mg ai/mL stock solutions. […] The concentrated stock solutions were diluted to 1.5 mg ai/mL with the addition of 2 volumes of an aqueous mixture containing acetone, water, isopropyl alcohol, DMSO, Agri-dex crop oil concentrate, and Triton® X-77 surfactant in a 64.7:26.0:6.7:2.0:0.7:0.01 v/v ratio. A dilution solution was prepared by mixing 1 volume of 97:3 v/v acetone/DMSO and 2 volumes of an aqueous mixture containing acetone, water, isopropyl alcohol, DMSO, Agri-dex crop oil concentrate, and Triton® X-77 surfactant in a 64.7:26.0:6.7:2.0:0.7:0.01 v/v ratio. Compound requirements are based upon a 12 mL application volume at a rate of 187 L/ha. Spray solutions of fluroxypyr MHE, clopyralid MEA, and experimental compound mixtures were prepared by adding the stock solutions to the appropriate amount of dilution solution to form 12 mL spray solution with active ingredients in two- and three-way combinations. Formulated compounds were applied to the plant material with an overhead Mandel track sprayer equipped with a 8002E nozzles calibrated to deliver 187 L/ha over an application area of 0.503 square meters at a spray height of 18 inches (43 cm) above average plant canope. Control plants were sprayed in the same manner with the solvent blank.
(§3) The treated plants and control plants were placed in a greenhouse as described above and watered by sub-irrigation to prevent wash-off of the test compounds. After 3 weeks the condition of the test plants as compared with that of the control plants was determined visually and scored on a scale of 0 to 100 percent where 0 corresponds to no injury and 100 corresponds to complete kill.
(§4) Colby's equation was used to determine the herbicidal effects expected from the mixtures (Colby, S. R. 1967. Calculation of the synergistic and antagonistic response of herbicide combinations. Weeds 15:20-22.).
(§5) The following equation was used to calculate the expected activity of mixtures containing two active ingredients, A and B: Expected=A+B−(A×B/100) • A=observed efficacy of active ingredient A at the same concentration as used in the mixture. • B=observed efficacy of active ingredient B at the same concentration as used in the mixture.
(§6) The following equation was used to calculate the expected activity of mixtures containing three active ingredients, A, B, and C: Expected=A+B+C−(A×B+B×C+A×C)/100+(A×B×C)/10000 • A=observed efficacy of active ingredient A at the same concentration as used in the mixture. • B=observed efficacy of active ingredient B at the same concentration as used in the mixture. • C=observed efficacy of active ingredient C at the same concentration as used in the mixture.

The subject of a further assay is Matricaria chamomilla. The description is as above. The settings on record: after 3 weeks. How it is done: as §1, §2, §3, §4, §5, §6
The test system of assay [2] is Triticum aestivum (spring wheat). Described as above. The conditions noted are these: after 3 weeks. As to the method:
as §1, §2, §3, §4, §5, §6

Assay [3] relates to Hordeum vulgare (winter barley). Briefly: Postemergence herbicidal safening in cereal crops. The conditions noted are these: Table 5, applied alone, after 3 weeks. As to the method:
(§7) Seeds of the desired test plant species were planted in Sun Gro MetroMix® 306 planting mixture, which typically has a pH of 6.0 to 6.8 and an organic matter content of about 30 percent, in plastic pots with a surface area of 103.2 square centimeters. When required to ensure good germination and healthy plants, a fungicide treatment and/or other chemical or physical treatment was applied. The plants were grown for 7-36 days in a greenhouse with an approximate 14 hour photoperiod which was maintained at about 18° C. during the day and 17° C. during the night. Nutrients and water were added on a regular basis and supplemental lighting was provided with overhead metal halide 1000-Watt lamps as necessary. The plants were employed for testing when they reached the second or third true leaf stage. Treatments consisted of compound 42 and cloquintocet-mexyl alone and in combination. Weighed amounts were placed in 25 mL glass vials and dissolved in a volume of 97:3 v/v acetone/DMSO to obtain 9 mg ai/mL stock solutions. […] A dilution solution was prepared by mixing 1 volume of 97:3 v/v acetone/DMSO and 2 volumes of an aqueous mixture containing acetone, water, isopropyl alcohol, DMSO, Agri-dex crop oil concentrate, and Triton® X-77 surfactant in a 64.7:26.0:6.7:2.0:0.7:0.01 v/v ratio. Compound requirements are based upon a 12 mL application volume at a rate of 187 L/ha. […] Formulated compounds were applied to the plant material with an overhead Mandel track sprayer equipped with a […] nozzles calibrated to deliver 187 L/ha over an application area of 0.503 square meters at a spray height of 18 inches (43 cm) above average plant canopy height. Control plants were sprayed in the same manner with the solvent blank. The treated plants and control plants were placed in a greenhouse as described above and watered by sub-irrigation to prevent wash-off of the test compounds. After 3 weeks the condition of the test plants as compared with that of the untreated plants was determined visually and scored on a scale of 0 to 100 percent where 0 corresponds to no injury and 100 corresponds to complete kill. Colby's equation was used to determine the herbicidal effects expected from the mixtures (Colby, S. R. 1967. Calculation of the synergistic and antagonistic response of herbicide combinations. Weeds 15:20-22.). The following equation was used to calculate the expected activity of mixtures containing two active ingredients, A and B: Expected=A+B-(A×B/100) • A=observed efficacy of active ingredient A at the same concentration as used in the mixture. • B=observed efficacy of active ingredient B at the same concentration as used in the mixture.

A further assay concerns Papaver rhoeas. Briefly: Postemergence herbicidal safening in cereal crops. The conditions noted are these: Table 5, applied alone, after 3 weeks. As to the method:
as §7

The test system of assay [4] is Triticum aestivum (spring wheat). Briefly: Postemergence herbicidal safening in cereal crops. The settings on record: Table 5, applied alone, after 3 weeks. As to the method:
as §7

The test system of a further assay is Galium aparine. Briefly: Postemergence herbicidal safening in cereal crops. The settings on record: Table 5, applied alone, after 3 weeks. How it is done:
as §7

Setting [5] is: Table 6, applied alone, 35 g ai/ha.
Setting [6] is: Table 7, applied alone, 35 g ai/ha.
Where [7] appears, read: Table 7, applied alone, 70 g ai/ha.

For the compound `COC(=O)c1nc(-c2c(F)cc(Cl)c(OC)c2F)cc(N)c1Cl` [Compound 58, 4-Amino-3-chloro-6-(4-chloro-2,6-difluoro-3-methoxyphenyl)pyridine-2-carboxylic acid, methyl ester], the “% Control HORVW Ob” value in assay [1] (setting [5]) was 15%. For the same compound, the “% Control MATCH Ob” value in the assay with Matricaria chamomilla (setting [5]) is given as 0%. Moreover, the “% Control TRZAS Ob” value in assay [2] (setting [5]) amounted to 35%.

For the compound `COC(=O)c1nc(-c2ccc(Cl)c(OC)c2F)cc(N)c1Cl` [Compound 42, 4-Amino-3-chloro-6-(4-chloro-2-fluoro-3-methoxyphenyl)pyridine-2-carboxylic acid methyl ester], the “% Control HORVW Ob” value is on record as 25% in assay [1] (setting [6]), 30% in assay [1] (setting [7]), 0% in assay [3] (35 g ai/ha) and 15% in assay [3] (70 g ai/ha). The “% Control MATCH Ob” value came to 50% in the assay with Matricaria chamomilla (setting [6]) and 60% with Matricaria chamomilla (setting [7]). The “% Control TRZAS Ob” value in assay [2] (setting [6]) was found to be 30%; in assay [2] (setting [7]) it was 45%; in assay [4] (35 g ai/ha), 35%; in assay [4] (70 g ai/ha), 40%. Moreover, the “% Control PAPRH Ob” value with Papaver rhoeas (35 g ai/ha) and with Papaver rhoeas (70 g ai/ha) was 100% in each case. The entries for the “% Control GALAP Ob” value with Galium aparine (35 g ai/ha) and in the assay on Galium aparine (70 g ai/ha) were 99% and 100%, respectively.
